Measured values reported in PubChem BioAssay AID248 (DTP/NCI, 2004).
Toxic doses and inconclusive results are not listed. Rule as the data show it: active = T/C of 150% or more; inactive = T/C below 125%.

Test system: L1210 leukemia ip in BDF1 mice, survival T/C
Assay: NCI In Vivo Anticancer Drug Screen. Data for tumor model L1210 Leukemia (intraperitoneal) in B6D2F1 (BDF1) mice
Conditions: endpoint: mean survival time, higher = longer survival
How it was run: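 Antitumor effect is assessed in tumor-bearing animals. Survival in the compound arm is compared with a vehicle-dosed control arm and expressed as their quotient.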

[1] = dose: 100.0 mg/kg/injection, schedule: Q04DX003 (ip), vehicle: Klucel (hydroxypropylcellulose) (HPC)
[2] = dose: 200.0 mg/kg/injection, schedule: Q04DX003 (ip), vehicle: Klucel (hydroxypropylcellulose) (HPC)
[3] = dose: 400.0 mg/kg/injection, schedule: Q04DX003 (ip), vehicle: Klucel (hydroxypropylcellulose) (HPC)
[4] = dose: 100.0 mg/kg/injection, schedule: Q04DX002 (ip), vehicle: Klucel (hydroxypropylcellulose) (HPC)
[5] = dose: 200.0 mg/kg/injection, schedule: Q04DX002 (ip), vehicle: Klucel (hydroxypropylcellulose) (HPC)
[6] = dose: 400.0 mg/kg/injection, schedule: Q04DX002 (ip), vehicle: Klucel (hydroxypropylcellulose) (HPC)
[7] = dose: 100.0 mg/kg/injection, schedule: Q01DX001 (ip), vehicle: saline
[8] = dose: 200.0 mg/kg/injection, schedule: Q01DX001 (ip), vehicle: saline
[9] = dose: 100.0 mg/kg/injection, schedule: Q01DX009 (ip), vehicle: Klucel (hydroxypropylcellulose) (HPC)
[10] = dose: 200.0 mg/kg/injection, schedule: Q01DX009 (ip), vehicle: Klucel (hydroxypropylcellulose) (HPC)
[11] = dose: 400.0 mg/kg/injection, schedule: Q01DX009 (ip), vehicle: Klucel (hydroxypropylcellulose) (HPC)
[12] = dose: 400.0 mg/kg/injection, schedule: Q01DX001 (ip), vehicle: saline
[13] = dose: 100.0 mg/kg/injection, schedule: Q04DX003 (ip), vehicle: saline with Tween-80

Measured: T/C

S=c1[nH]nc2ccccn12
inactive: [1] 100 % of control | [2] 94 % of control | [3] 94 % of control

Cc1cc(C)c(NC(=O)Cc2ccccc2)cc1C
inactive: [4] 96 % of control | [5] 96 % of control | [6] 89 % of control

CC(CO)(CO)N=Cc1ccccc1O.CC(CO)(CO)N=Cc1ccccc1O.[Co]
inactive: dose: 50.0 mg/kg/injection, schedule: Q01DX001 (ip), vehicle: saline 108 % of control | [7] 97 % of control | [8] 106 % of control

Cc1cc2cc(C)c3cccc(C)c3c2c2c(C)cccc12
inactive: [9] 102 % of control | dose: 100.0 mg/kg/injection, schedule: Q04DX003 (ip), vehicle: other 95 % of control | [10] 106 % of control | dose: 200.0 mg/kg/injection, schedule: Q04DX003 (ip), vehicle: other 97 % of control | [11] 96 % of control | dose: 400.0 mg/kg/injection, schedule: Q04DX003 (ip), vehicle: other 90 % of control

O=C1C=C2C(=CCOC2O)O1 (stereo not given)
inactive: dose: 0.25 mg/kg/injection, schedule: Q01DX009 (ip), vehicle: Klucel (hydroxypropylcellulose) (HPC) 97 % of control | dose: 0.5 mg/kg/injection, schedule: Q01DX009 (ip), vehicle: Klucel (hydroxypropylcellulose) (HPC) 103 % of control | dose: 1.0 mg/kg/injection, schedule: Q01DX009 (ip), vehicle: Klucel (hydroxypropylcellulose) (HPC) 109 % of control | dose: 2.0 mg/kg/injection, schedule: Q01DX009 (ip), vehicle: Klucel (hydroxypropylcellulose) (HPC) 104 % of control | dose: 4.0 mg/kg/injection, schedule: Q01DX009 (ip), vehicle: Klucel (hydroxypropylcellulose) (HPC) 101 % of control

Cc1ncc(CO)c(C)c1O
inactive: dose: 0.03 mg/kg/injection, schedule: Q02DX010 (ip), vehicle: saline 118 % of control | dose: 0.04 mg/kg/injection, schedule: Q02DX010 (ip), vehicle: saline 118 % of control | dose: 0.07 mg/kg/injection, schedule: Q02DX010 (ip), vehicle: saline 123 % of control | dose: 0.15 mg/kg/injection, schedule: Q02DX010 (ip), vehicle: saline 86 % of control | dose: 0.23 mg/kg/injection, schedule: Q02DX010 (ip), vehicle: saline 86 % of control | dose: 12.5 mg/kg/injection, schedule: Q01DX009 (ip), vehicle: saline 98 % of control | dose: 22.81 mg/kg/injection, schedule: Q01DX Z (ip), vehicle: carboxymethylcellulose (CMC) 102 % of control | dose: 25.0 mg/kg/injection, schedule: Q01DX009 (ip), vehicle: saline 95 % of control | dose: 45.62 mg/kg/injection, schedule: Q01DX Z (ip), vehicle: carboxymethylcellulose (CMC) 101 % of control | dose: 50.0 mg/kg/injection, schedule: Q01DX009 (ip), vehicle: saline 103 % of control | dose: 91.25 mg/kg/injection, schedule: Q01DX Z (ip), vehicle: carboxymethylcellulose (CMC) 105 % of control | dose: 100.0 mg/kg/injection, schedule: Q01DX009 (ip), vehicle: saline 102 % of control | dose: 182.3 mg/kg/injection, schedule: Q01DX Z (ip), vehicle: carboxymethylcellulose (CMC) 110 % of control | dose: 200.0 mg/kg/injection, schedule: Q01DX009 (ip), vehicle: saline 108 % of control

COc1ccc(Nc2cc(C)nc(N)n2)cc1
inactive: dose: 25.0 mg/kg/injection, schedule: Q01DX Z (ip), vehicle: methylcellulose (MC) 97 % of control | dose: 50.0 mg/kg/injection, schedule: Q01DX Z (ip), vehicle: methylcellulose (MC) 105 % of control

O=C1CC(CC(=O)C2CCCC2=O)CC(=O)N1 (stereo not given)
inactive: [7] 101 % of control | [8] 100 % of control | [12] 108 % of control

COc1cc2c(c3oc(=O)ccc13)C=CC(C)(C)O2
inactive: [1] 102 % of control | [2] 107 % of control | [3] 94 % of control

CON1C(=O)C2(CCCCC2)C2=NOC3C(Br)CCCC231 (stereo not given)
inactive: dose: 100.0 mg/kg/injection, schedule: Q01DX001 (ip), vehicle: saline with Tween-80 92 % of control | [13] 106 % of control | dose: 200.0 mg/kg/injection, schedule: Q01DX001 (ip), vehicle: saline with Tween-80 95 % of control | dose: 200.0 mg/kg/injection, schedule: Q04DX003 (ip), vehicle: saline with Tween-80 97 % of control | dose: 400.0 mg/kg/injection, schedule: Q01DX001 (ip), vehicle: saline with Tween-80 95 % of control | dose: 400.0 mg/kg/injection, schedule: Q04DX003 (ip), vehicle: saline with Tween-80 95 % of control

C=C(C)COc1ccc(C(=O)c2ccccc2)cc1
inactive: [4] 103 % of control | [5] 100 % of control | [6] 94 % of control

O=[N+]([O-])c1c(Cl)ccc2c(Cl)ccnc12
inactive: dose: 100.0 mg/kg/injection, schedule: Q04DX003 (ip), vehicle: gum acacia 111 % of control | dose: 200.0 mg/kg/injection, schedule: Q04DX003 (ip), vehicle: gum acacia 91 % of control

O=C1c2cc(Br)cc(Br)c2NCCC1(Br)Br
inactive: dose: 100.0 mg/kg/injection, schedule: Q01DX001 (ip), vehicle: carboxymethylcellulose (CMC) 91 % of control | dose: 200.0 mg/kg/injection, schedule: Q01DX001 (ip), vehicle: carboxymethylcellulose (CMC) 91 % of control | dose: 400.0 mg/kg/injection, schedule: Q01DX001 (ip), vehicle: carboxymethylcellulose (CMC) 94 % of control

O=C(Nc1ccc(C2=NCCN2)cc1)Nc1cc(NC(=O)Nc2ccc(C3=NCCN3)cc2)cc(C(=O)O)c1
inactive: dose: 120.0 mg/kg/injection, schedule: Q01DX Z (ip), vehicle: carboxymethylcellulose (CMC) 106 % of control | dose: 240.0 mg/kg/injection, schedule: Q01DX Z (ip), vehicle: carboxymethylcellulose (CMC) 102 % of control | dose: 250.0 mg/kg/injection, schedule: Q01DX Z (ip), vehicle: water 93 % of control | dose: 500.0 mg/kg/injection, schedule: Q01DX Z (ip), vehicle: water 94 % of control

CNC(C)(C)C(SS)c1ccc(Cl)cc1 (stereo not given)
inactive: dose: 25.0 mg/kg/injection, schedule: Q01DX009 (ip), vehicle: saline with Tween-80 92 % of control | dose: 25.0 mg/kg/injection, schedule: Q04DX003 (ip), vehicle: saline with Tween-80 102 % of control | dose: 50.0 mg/kg/injection, schedule: Q01DX009 (ip), vehicle: saline with Tween-80 98 % of control | dose: 50.0 mg/kg/injection, schedule: Q04DX003 (ip), vehicle: saline with Tween-80 96 % of control | dose: 75.0 mg/kg/injection, schedule: Q01DX009 (ip), vehicle: saline with Tween-80 94 % of control | [13] 98 % of control

Cc1nnc(NS(=O)(=O)c2ccc(N=Nc3c(N)[nH]c(=S)[nH]c3=O)cc2)s1
inactive: [7] 100 % of control | [8] 100 % of control | [12] 100 % of control

O=[N+]([O-])c1ccc(C(Br)C(Br)c2ccccc2Br)cc1 (stereo not given)
inactive: [9] 98 % of control | dose: 100.0 mg/kg/injection, schedule: Q04DX003 (ip), vehicle: saline 96 % of control | [10] 102 % of control | dose: 200.0 mg/kg/injection, schedule: Q04DX003 (ip), vehicle: saline 98 % of control | [11] 98 % of control | dose: 400.0 mg/kg/injection, schedule: Q04DX003 (ip), vehicle: saline 96 % of control
